Assay results reported in patent US4795758A, “5-[2-(pyrrolidin-1-yl)ethoxy]-p-cymene derivatives, the process for the preparation of the said derivatives and drugs in which the said derivatives are present” (priority 1987, dated 1989).
Structures can show the parent of a compound that is named as a salt. Where two headings read alike, the source gives them in different places.

Key:
[1] = test system: toxicity of norepinephrine; assay: In vivo adrenolytic activity: protection against norepinephrine-induced death in rats; settings: Rattus norvegicus, po; for responders at 50 mg/kg / responders at 25 mg/kg: 0.5 h, 30 min before i.v. norepinephrine 0.4 mg/kg; for responders at 50 mg/kg: 50 mg/kg p.o.; for responders at 25 mg/kg: 25 mg/kg p.o.
Description: Norepinephrine injected intravenously in high doses causes the death of 100% of the animals within 15 minutes of being injected. The cause of death is pulmonary edema due to the arterial hypertension induced by stimulation of the adrenergic receptors. The oral administration of α-adrenolytic substances before-hand enables the toxicity of norepinephrine to be reduced. The products are administered orally at times varying between 30 minutes and 6 hours before the intravenous injection (i.v.) of norepinephrine (0.4 mg/kg).

arterial pressure = assay: Urethral specificity in anesthetized dogs: arterial hypotension; assay type: in vivo; settings: i.v., dose causing 20% arterial hypotension
From the text: (§1) The effect of products B 1007, B 1024, B 1125 and B 1134, injected intravenously, on the neurogenic urethral hypertension and the arterial pressure was investigated on anesthetized dogs.
(§2) α-Blocking substances antagonize these increases in urethral pressure as a function of dose and cause arterial hypotension through a blocking action on the vascular receptors.
(§3) The dose which causes a 50% inhibition of the effects of stimulation of the hypogastric nerve on the urethral pressure (ID50) and the dose which causes a 20% arterial hypotension (ED20) are calculated.

[2] = test system: arterial hypertension induced by norepinephrine; assay: In vivo α-blocking activity in anesthetized rabbits: arterial pressure; settings: Oryctolagus cuniculus, iv, norepinephrine-induced arterial pressure increase, read-out: ID50 with regard to arterial hypertension
From the text: (§4) The "in vivo" α-blocking activity in terms of the urethral and vascular pressures in anesthetized rabbits was investigated by intravenous administration of the products B 1007, B 1024, B 1058, B 1125 and B 1134.
(§5) The intravenous injection of norepinephrine causes a dose-dependent increase in the arterial and urethral pressures in rabbits. α-Blocking substances injected intravenously antagonize these pressure increases as a function of dose. The 50% inhibitory dose (ID50), defined as being the dose of product which causes a 50% […] in the effects of norepinephrine on the arterial and urethral pressures, is calculated.

[3] = test system: isolated urethra of rabbits; assay: In vitro α-adrenolytic activity on isolated urethra; settings: rabbit; negative log of molar concentration halving norepinephrine contraction-inducing activity
From the text: (§6) 2.1. - In vitro α-adrenolytic activity
(§7) This was studied on the ductus deferens of rats and on the urethra of rabbits.
(§8) Norepinephrine causes contractions of the isolated ductus deferens of rats and the isolated urethra of rabbits. The presence of α-blocking substances in a bath containing the organ antagonizes these contractions; the use of increasing concentrations of α-blocking substances makes it possible to calculate:
the pD'2 of the compounds on the urethra of rabbits, the pD'2 being the negative logarithm of that molar concentration of the product in the presence of which the contraction-inducing activity of norepinephrine is halved.

[4] = biological target: T1, isolated ductus deferens of rats (Rattus norvegicus, UniProt P43140); assay: In vitro α-adrenolytic activity on isolated ductus deferens; settings: negative log of molar concentration requiring doubled norepinephrine concentration, read-out: pA2, α-blocking action towards norepinephrine on isolated ductus deferens (converted)
T1 construct: Norepinephrine causes contractions of the isolated ductus deferens of rats; from tissue; host or cells: isolated ductus deferens of rats
T1 sequence (P43140 1-466): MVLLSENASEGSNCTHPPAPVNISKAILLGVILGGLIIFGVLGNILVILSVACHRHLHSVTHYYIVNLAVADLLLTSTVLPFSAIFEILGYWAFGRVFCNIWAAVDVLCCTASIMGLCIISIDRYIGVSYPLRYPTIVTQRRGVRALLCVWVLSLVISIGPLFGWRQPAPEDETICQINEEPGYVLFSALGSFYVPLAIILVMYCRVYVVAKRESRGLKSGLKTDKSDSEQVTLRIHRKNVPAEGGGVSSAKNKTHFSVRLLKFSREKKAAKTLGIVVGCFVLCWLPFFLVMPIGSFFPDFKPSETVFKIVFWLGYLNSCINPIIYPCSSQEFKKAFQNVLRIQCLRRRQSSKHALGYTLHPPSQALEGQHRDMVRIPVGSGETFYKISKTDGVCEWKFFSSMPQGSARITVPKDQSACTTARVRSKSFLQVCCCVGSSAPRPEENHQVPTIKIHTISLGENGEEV
From the text: as §6, §7, §8
the pA2 of the compounds on the ductus deferens of rats, the pA2 being the negative logarithm of that molar concentration of the product in the presence of which the concentration of norepinephrine has to be doubled in order to obtain the same effect as in the absence of the product; and […]

[5] = Toxicity: 50% lethal dose in mice (p.o. and i.v.); settings: mouse, in vivo
From the text: The following 50% lethal doses were obtained after oral administration (p.o.) and intravenous administration (i.v.) of the substances to mice.

[6] = test system: neurogenic urethral hypertension (stimulation of the hypogastric nerve); assay: Urethral specificity in anesthetized dogs: neurogenic urethral hypertension; assay type: in vivo; settings: Canis lupus familiaris, iv, 50% inhibition of effect of hypogastric nerve stimulation on urethral pressure, read-out: Neurogenic urethral hypertension ID50
From the text: as §1
Electrical stimulation of the hypogastric nerve causes an increase in the urethral pressure by releasing norepinephrine from the sympathetic fibers of the nerve.
as §2, §3

[7] = test system: urethral hypertension induced by norepinephrine; assay: In vivo α-blocking activity in anesthetized rabbits: urethral pressure; settings: Oryctolagus cuniculus, iv, norepinephrine-induced urethral pressure increase, read-out: ID50 with regard to urethral hypertension
From the text: as §4, §5

[8] = intravenous, read-out: LD50 i.v.

SMILES: Cc1ccc(C(C)C)c(OCCN2CCCC2)c1 [B 1007, 3-[2-(pyrrolidin-1-yl)ethoxy]-p-cymene hydrochloride]
- responders at 50 mg/kg [1]: 60%
- Arterial hypotension ED20 (arterial pressure): 2 mg/kg
- ED50 [2]: 7.63 mg/kg
- pD'2, α-blocking action towards norepinephrine on isolated urethra [3]: 6.88
- Kb [4]: 0.182 µM
- LD50 [5, 8]: 75 mg/kg
- LD50 ([5]; oral, read-out: LD50 p.o.): 330 mg/kg
- ED50 [6]: 0.35 mg/kg
- ED50 [7]: 0.34 mg/kg

SMILES: CCCCCC(=O)Oc1cc(C(C)C)c(OCCN2CCCC2)cc1C [B 1131]
- responders at 50 mg/kg [1]: 60%
- pD'2, α-blocking action towards norepinephrine on isolated urethra [3]: 6.12
- Kb [4]: 0.105 µM
- LD50 ([5]; oral, read-out: LD50 p.o.): ~550 mg/kg

SMILES: CC(=O)Oc1cc(C(C)C)c(OCCN2CCCC2)cc1C [B 1024, 2-acetoxy-5-[2-(pyrrolidin-1-yl)ethoxy]-p-cymene hydrochloride]
- responders at 25 mg/kg [1]: 70%
- Arterial hypotension ED20 (arterial pressure): 8 mg/kg
- ED50 [2]: 4.14 mg/kg
- pD'2, α-blocking action towards norepinephrine on isolated urethra [3]: 6.38
- Kb [4]: 0.105 µM
- LD50 [5, 8]: 18 mg/kg
- LD50 ([5]; oral, read-out: LD50 p.o.): 100 mg/kg
- ED50 [6]: 0.07 mg/kg
- ED50 [7]: 0.23 mg/kg

SMILES: CCCC(=O)Oc1cc(C(C)C)c(OCCN2CCCC2)cc1C [B 1132, 2-butyryloxy-5-[2-(pyrrolidin-1-yl)-ethoxy]-p-cymene hydrochloride]
- responders at 50 mg/kg [1]: 90%
- pD'2, α-blocking action towards norepinephrine on isolated urethra [3]: 6.0
- Kb [4]: 0.0447 µM
- LD50 ([5]; oral, read-out: LD50 p.o.): ~500 mg/kg

SMILES: Cc1cc(OCCN2CCCC2)c(C(C)C)cc1O [B 1058, 2-hydroxy-5-[2-(pyrrolidin-1-yl)ethoxy]-p-cymene hydrochloride]
- responders at 50 mg/kg [1]: 90%
- ED50 [2]: 1.22 mg/kg
- pD'2, α-blocking action towards norepinephrine on isolated urethra [3]: 6.69
- Kb [4]: 0.0661 µM
- LD50 [5, 8]: 17 mg/kg
- LD50 ([5]; oral, read-out: LD50 p.o.): 80 mg/kg
- ED50 [7]: 0.13 mg/kg

SMILES: CCCCCCCCCC(=O)Oc1cc(C(C)C)c(OCCN2CCCC2)cc1C [B 1134]
- responders at 100 mg/kg ([1]; 100 mg/kg p.o., 4 h before i.v. norepinephrine 0.4 mg/kg): 100%
- Arterial hypotension ED20 (arterial pressure): 30 mg/kg
- ED50 [2]: 6.17 mg/kg
- pD'2, α-blocking action towards norepinephrine on isolated urethra [3]: 6.23
- Kb [4]: 0.269 µM
- LD50 [5, 8]: 36 mg/kg
- LD50 ([5]; oral, read-out: LD50 p.o.): ~400 mg/kg
- ED50 [6]: 0.11 mg/kg
- ED50 [7]: 0.48 mg/kg

SMILES: CC(=O)Oc1cc(C(C)C)c(OCCN(C)C)cc1C [Thymoxamine, reference compound]
- responders at 50 mg/kg [1]: 80%
- Arterial hypotension ED20 (arterial pressure): 0.27 mg/kg
- ED50 [2]: 2.72 mg/kg
- pD'2, α-blocking action towards norepinephrine on isolated urethra [3]: 7.03
- Kb [4]: 0.0562 µM
- LD50 [5, 8]: 72.5 mg/kg
- LD50 ([5]; oral, read-out: LD50 p.o.): 300 mg/kg
- ED50 [6]: 0.09 mg/kg
- ED50 [7]: 0.5 mg/kg

SMILES: CCC(=O)Oc1cc(C(C)C)c(OCCN2CCCC2)cc1C [B 1125]
- responders at 25 mg/kg [1]: 60%
- Arterial hypotension ED20 (arterial pressure): 12 mg/kg
- ED50 [2]: 5.95 mg/kg
- pD'2, α-blocking action towards norepinephrine on isolated urethra [3]: 6.25
- Kb [4]: 0.0724 µM
- LD50 ([5]; oral, read-out: LD50 p.o.): ~300 mg/kg
- ED50 [6]: 0.09 mg/kg
- ED50 [7]: 0.36 mg/kg
